pEC50: −log10 of the molar value.

The target in the assay is T1, human cloned CHRM2 receptor (Homo sapiens, UniProt P08172).
T1 construct: expressed in transfected cells; host or cells: CHO-K1 (M2_CHO)
T1 sequence (P08172 1-466): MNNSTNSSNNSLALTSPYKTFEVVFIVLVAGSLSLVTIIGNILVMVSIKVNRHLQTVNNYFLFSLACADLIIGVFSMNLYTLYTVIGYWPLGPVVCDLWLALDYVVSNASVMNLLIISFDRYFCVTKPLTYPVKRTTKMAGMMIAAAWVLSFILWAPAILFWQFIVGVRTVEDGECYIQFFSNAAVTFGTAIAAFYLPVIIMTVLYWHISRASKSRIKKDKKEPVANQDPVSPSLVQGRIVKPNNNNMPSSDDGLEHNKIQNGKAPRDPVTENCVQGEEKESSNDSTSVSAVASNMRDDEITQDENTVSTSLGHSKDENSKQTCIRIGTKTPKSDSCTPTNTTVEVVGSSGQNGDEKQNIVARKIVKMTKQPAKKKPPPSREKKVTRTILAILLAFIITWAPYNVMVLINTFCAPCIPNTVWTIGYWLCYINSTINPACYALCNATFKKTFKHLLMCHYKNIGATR
The assay is described as follows: CHRM2 Ca++ Flux Assay (M2_CHO cells, agonist mode). Type of assay: cell-based. The settings on record: M2 CHO cells; for pEC50: agonist mode, geometric mean if tested more than once, read-out: M2 FDSS EC50; for Emax: read-out: M2 FDSS PA %. In outline:
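Agonist activity was expressed as percent of the carbachol EC100 response, fitted by four-parameter regression on triplicate wells, with geometric means across repeat runs. Calcium traces over 3 minutes came from dye-loaded M2_CHO cells (12K/well) pre-incubated 60 min in Ca/Mg-free HBSS with 20 mM HEPES, 2.5 mM probenecid and 20 μM ATP.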

[1] abbreviates: Percent Activity (PA) measured to EC100 of Carbachol.

Usually pEC50 stands for the negative decadic logarithm of the EC50, by convention in mol/L. In the case of `c1ccc(C2CCN([C@@H]3COC4(C3)CN(c3ncco3)C4)CC2)c(C2CCOCC2)c1` [Example 4V, (S)-2-(oxazol-2-yl)-7-(4-(2-(tetrahydro-2H-pyran-4-yl)phenyl)piperidin-1-yl)-5-oxa-2-azaspiro[3.4]octane], the pEC50 was 4.97. Also, the Emax under setting [1] came to 14%.
For the compound `c1ccc(C2CCN([C@@H]3COC4(C3)CN(c3ncco3)C4)CC2)c(OC2CC3(COC3)C2)c1` [Example 4M, (S)-7-(4-(2-((2-oxaspiro[3.3]heptan-6-yl)oxy)phenyl)piperidin-1-yl)-2-(oxazol-2-yl)-5-oxa-2-azaspiro[3.4]octane], the pEC50 is < 4.60. Under setting [1], the Emax is 0%.
On the same counts, the results for `Fc1ccc(C2CCOCC2)c(C2CCN([C@@H]3COC4(C3)CN(c3nnco3)C4)CC2)c1` [Example 3D, (S)-7-(4-(5-fluoro-2-(tetrahydro-2H-pyran-4-yl)phenyl)piperidin-1-yl)-2-(1,3,4-oxadiazol-2-yl)-5-oxa-2-azaspiro[3.4]octane] are 5.72 and 48%.
Regarding `CC1(C)C[C@@H](Oc2ccc(F)cc2C2CCN([C@@H]3COC4(C3)CN(c3nnco3)C4)CC2)CO1` (single isomer, unassigned) [Example 2N, (S)-7-(4-(2-(((R)-5,5-dimethyltetrahydrofuran-3-yl)oxy)-5-fluorophenyl)piperidin-1-yl)-2-(1,3,4-oxadiazol-2-yl)-5-oxa-2-azaspiro[3.4]octane or (S)-7-(4-(2-(((S)-5,5-dimethyltetrahydrofuran-3-yl)oxy)-5-fluorophenyl)piperidin-1-yl)-2-(1,3,4-oxadiazol-2-yl)-5-oxa-2-azaspiro[3.4]octane], the pEC50 was 5.37. For the same compound, the “M2 FDSS PA %” value under setting [1] came out at 20%.
For `CC(C)(C#N)COc1ccc(F)cc1C1CCN([C@@H]2COC3(C2)CN(c2nnco2)C3)CC1` [Example 1E, (S)-3-(2-(1-(2-(1,3,4-oxadiazol-2-yl)-5-oxa-2-azaspiro[3.4]octan-7-yl)piperidin-4-yl)-4-fluorophenoxy)-2,2-dimethylpropanenitrile], the pEC50 is 6.25. The Emax under setting [1] is 32%.
`Fc1ccc(OC[C@@H]2CCOC2)c(C2CCN([C@@H]3COC4(C3)CN(c3nncs3)C4)CC2)c1` [Example 5I, (S)-7-(4-(5-fluoro-2-(((R)-tetrahydrofuran-3-yl)methoxy)phenyl)piperidin-1-yl)-2-(1,3,4-thiadiazol-2-yl)-5-oxa-2-azaspiro[3.4]octane]: the pEC50 was 6.26. For the same compound, under setting [1], the Emax is 43%.
`COc1ccc(Cl)cc1C1CCN([C@@H]2COC3(C2)CN(c2ncns2)C3)CC1` [Example 5A, (S)-7-(4-(5-chloro-2-methoxyphenyl)piperidin-1-yl)-2-(1,2,4-thiadiazol-5-yl)-5-oxa-2-azaspiro[3.4]octane]: the pEC50 was < 4.60. Further, the Emax under setting [1] was 26%.

The record behind these values is patent US11485742B2, “2-azaspiro[3.4]octane derivatives as M4 agonists” (NOVARTIS AG, priority 2019, dated 2022).
